Values of other authors as cited in publication PMC7797289 (Drug Design, Development and Therapy, 2021).

Legend:
[1] = system: breast cancer metastasis; settings: in vivo test
[2] = biological target: uPA; settings: read-out: Ki (inhibitory constant); uPA inhibitor
[3] = system: lung cancer; settings: lung cancer animal model

Ki [2] [nM]	Compound	breast cancer metastasis [1]	anti-tumor efficacy [3]
	CCCNC(=O)[C@H]1O[C@@H]1C(=O)N[C@H](C(=O)N1CCC[C@H]1C(=O)O)[C@@H](C)CC [CA-074]	reduced breast cancer metastasis	
20	N=C(N)c1ccc(CNC(=O)[C@H](CO)NC(=O)[C@@H](CO)NS(=O)(=O)Cc2ccccc2)cc1 [CJ-463, benzylsulfonyl-D-Ser-Ser-4- amidinobenzylamide]		good anti-tumor efficacy
	CN(C)C(=O)[C@H](Cc1ccccc1)NC(=O)[C@H]1O[C@@H]1C(=O)NCCc1ccccn1 [CLIK-148]	reduced breast cancer metastasis	
